Activity calls are given as the source filed them. No cut-off for these calls is given here.
Key:
Homo sapiens = species on record: Homo sapiens; test: Inhibition of alpha-glucosidase (unknown origin) at 100 uM
Mushroom tyrosinase = Mushroom tyrosinase (Agaricus bisporus, UniProt O42713+Q00024+C7FF04+C7FF05); test: Inhibition of mushroom tyrosinase using L-Dopa as substrate preincubated for 10 mins followed by substrate addition and measured after 5 mins

| Structure (SMILES) | inhibition (Homo sapiens) | IC50 (Mushroom tyrosinase) [µM] |
| --- | --- | --- |
| CS[C@]1(Cc2c[nH]c3ccccc23)NC(=O)[C@](CO)(SC)N(C)C1=O [CHETOSEMINUDIN B] | inactive | 31.7 |
| CO[C@@]1([C@H](SC)c2c[nH]c3ccccc23)NC(=O)[C@@](SC)(C(C)C)N(C)C1=O | inactive | 33.2 |
| CC(C)[C@]12SS[C@]([C@@H](O)c3c[nH]c4ccccc34)(CC1=O)C(=O)N2C | inactive |  |
| CS[C@]1(Cc2c[nH]c3ccccc23)NC(=O)[C@@](SC)(C(C)C)NC1=O | inactive |  |
| CO[C@]1([C@H](SC)c2c[nH]c3ccccc23)NC(=O)[C@@](SC)(C(C)C)N(C)C1=O | inactive |  |
| CC(C)[C@@]12SS[C@]3(C(=O)N1C)[C@@H](O)[C@]1(c4c[nH]c5ccccc45)c4ccccc4N[C@@H]1N3C2=O | inactive | 28.4 |
| CS[C@H](c1c[nH]c2ccccc12)[C@]1(O)NC(=O)[C@@](SC)(C(C)C)N(C)C1=O | inactive |  |
| CC(C)[C@@H]1NC(=O)[C@@H]2C[C@@]3(O)c4ccccc4N[C@H]3N2C1=O | inactive |  |

Reference: ChEMBL document CHEMBL4627380, “Phaeosphaones: Tyrosinase Inhibitory Thiodiketopiperazines from an Endophytic Phaeosphaeria fuckelii” (J Nat Prod, 2020)
